Experimental data taken from ChEMBL document CHEMBL1201862, “PubChem BioAssay data set” (2004).
The source made the active and inactive calls.

What was measured:
Cysteine protease ATG4B = target: T1, Cysteine protease ATG4B (Homo sapiens, UniProt Q9Y4P1); type: functional;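 note: Fluorescence-based dose-response confirmation assay measuring inhibition of ATG4B activity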
T1 sequence (Q9Y4P1 whole entry): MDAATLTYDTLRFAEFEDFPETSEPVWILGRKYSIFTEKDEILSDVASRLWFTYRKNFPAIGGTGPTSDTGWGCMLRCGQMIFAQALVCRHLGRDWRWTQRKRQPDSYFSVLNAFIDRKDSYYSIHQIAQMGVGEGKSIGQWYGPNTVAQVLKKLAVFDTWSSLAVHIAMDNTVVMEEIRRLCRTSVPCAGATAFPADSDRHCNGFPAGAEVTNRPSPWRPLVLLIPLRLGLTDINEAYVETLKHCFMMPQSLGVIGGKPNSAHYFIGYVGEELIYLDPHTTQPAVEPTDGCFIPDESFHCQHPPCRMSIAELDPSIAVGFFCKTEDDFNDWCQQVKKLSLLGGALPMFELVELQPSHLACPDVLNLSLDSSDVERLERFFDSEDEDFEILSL

Phospholipase A2 = Phospholipase A2 (Homo sapiens, UniProt P04054); type: functional;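 note: confirmatory dose-response counterscreen on phospholipase A2, testing hits that came from an ultra-high-throughput screen for ATG4B inhibitors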
Phospholipase A2, sequence (P04054 whole entry, the tested form may be a part): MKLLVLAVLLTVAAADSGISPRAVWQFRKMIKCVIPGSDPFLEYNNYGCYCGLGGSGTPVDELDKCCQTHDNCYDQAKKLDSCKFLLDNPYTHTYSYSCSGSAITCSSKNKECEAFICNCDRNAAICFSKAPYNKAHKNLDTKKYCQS

[1] = target: T2, RNA-binding protein pos-1 (Caenorhabditis elegans, UniProt G5EF15); test: disruptors of C. elegans POS-1 RNA interaction – biochemical, fluorescence polarization, dose response (AID 1964);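 note: purified POS-1 fused to maltose binding protein made in E. coli; potency of compounds blocking POS-1 binding to fluorescent RNA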
T2 sequence (G5EF15 whole entry): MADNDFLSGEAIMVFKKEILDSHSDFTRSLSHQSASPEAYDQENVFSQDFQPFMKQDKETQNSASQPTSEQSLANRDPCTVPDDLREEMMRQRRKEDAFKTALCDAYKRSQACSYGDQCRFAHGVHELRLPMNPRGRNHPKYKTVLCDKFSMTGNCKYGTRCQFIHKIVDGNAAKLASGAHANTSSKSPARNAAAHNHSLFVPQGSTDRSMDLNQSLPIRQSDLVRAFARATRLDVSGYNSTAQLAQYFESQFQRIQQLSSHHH

[2] = target: T3, Zinc finger protein mex-5 (Caenorhabditis elegans, UniProt Q9XUB2); test: potency of MEX-5 RNA-binding blockers – biochemical, C. elegans, fluorescence polarization, dose response (AID 1960)
T3 sequence (Q9XUB2 whole entry): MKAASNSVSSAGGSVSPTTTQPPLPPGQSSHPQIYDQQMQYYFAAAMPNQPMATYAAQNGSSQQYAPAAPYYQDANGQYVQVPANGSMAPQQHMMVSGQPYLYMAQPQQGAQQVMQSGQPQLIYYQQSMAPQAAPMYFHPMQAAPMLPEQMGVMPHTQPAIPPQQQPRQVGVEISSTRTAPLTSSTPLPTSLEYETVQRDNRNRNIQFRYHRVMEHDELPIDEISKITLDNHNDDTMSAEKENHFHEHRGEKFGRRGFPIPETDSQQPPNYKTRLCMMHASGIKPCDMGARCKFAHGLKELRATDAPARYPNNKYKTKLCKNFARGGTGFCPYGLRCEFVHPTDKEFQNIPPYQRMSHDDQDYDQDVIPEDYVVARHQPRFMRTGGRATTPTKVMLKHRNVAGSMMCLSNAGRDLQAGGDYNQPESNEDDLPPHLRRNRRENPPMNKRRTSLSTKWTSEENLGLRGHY

[3] = viability of uninfected HEp-2 cells – cell-based, HTS, cytotoxicity control for RSV inhibitor project, dose response (AID 2410); type: functional; conditions: human respiratory syncytial virus
[4] = blockers of bursicon-stimulated LGR2 cAMP reporter – cell-based, HEK293, CRE-luciferase reporter, cherry pick, set 2, dose response (AID 743343); type: functional;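 note: transfected cells were stimulated with diluted bursicon conditioned medium after compound addition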
Cytochrome P450 3A4 = Cytochrome P450 3A4 (Homo sapiens, UniProt P08684); conditions: Potency;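 note: confirmatory qHTS run detecting inhibitors and substrates of CYP3A4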
Cytochrome P450 3A4, sequence (P08684 whole entry): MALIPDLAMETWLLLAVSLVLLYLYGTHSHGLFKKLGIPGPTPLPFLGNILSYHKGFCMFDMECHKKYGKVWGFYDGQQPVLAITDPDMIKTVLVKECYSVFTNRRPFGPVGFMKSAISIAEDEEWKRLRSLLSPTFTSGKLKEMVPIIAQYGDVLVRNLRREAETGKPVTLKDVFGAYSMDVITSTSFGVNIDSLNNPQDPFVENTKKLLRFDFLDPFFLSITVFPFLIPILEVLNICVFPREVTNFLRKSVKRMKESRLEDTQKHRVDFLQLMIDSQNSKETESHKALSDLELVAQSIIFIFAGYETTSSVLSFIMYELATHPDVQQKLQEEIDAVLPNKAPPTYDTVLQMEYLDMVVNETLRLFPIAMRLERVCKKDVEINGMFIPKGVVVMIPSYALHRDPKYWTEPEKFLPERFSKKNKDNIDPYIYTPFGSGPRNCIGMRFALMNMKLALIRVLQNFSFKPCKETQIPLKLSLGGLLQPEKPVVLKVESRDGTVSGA

Aminopeptidase N = target: T4, Aminopeptidase N (Plasmodium falciparum FcB1/Columbia, UniProt O96935); test: malaria alanyl aminopeptidase activity blockers – biochemical, fluorogenic H-Leu-NHMec substrate, 1536-well (AID 1445); parameters: species or system Plasmodium falciparum 3D7, 3D7
T4 sequence (O96935 whole entry): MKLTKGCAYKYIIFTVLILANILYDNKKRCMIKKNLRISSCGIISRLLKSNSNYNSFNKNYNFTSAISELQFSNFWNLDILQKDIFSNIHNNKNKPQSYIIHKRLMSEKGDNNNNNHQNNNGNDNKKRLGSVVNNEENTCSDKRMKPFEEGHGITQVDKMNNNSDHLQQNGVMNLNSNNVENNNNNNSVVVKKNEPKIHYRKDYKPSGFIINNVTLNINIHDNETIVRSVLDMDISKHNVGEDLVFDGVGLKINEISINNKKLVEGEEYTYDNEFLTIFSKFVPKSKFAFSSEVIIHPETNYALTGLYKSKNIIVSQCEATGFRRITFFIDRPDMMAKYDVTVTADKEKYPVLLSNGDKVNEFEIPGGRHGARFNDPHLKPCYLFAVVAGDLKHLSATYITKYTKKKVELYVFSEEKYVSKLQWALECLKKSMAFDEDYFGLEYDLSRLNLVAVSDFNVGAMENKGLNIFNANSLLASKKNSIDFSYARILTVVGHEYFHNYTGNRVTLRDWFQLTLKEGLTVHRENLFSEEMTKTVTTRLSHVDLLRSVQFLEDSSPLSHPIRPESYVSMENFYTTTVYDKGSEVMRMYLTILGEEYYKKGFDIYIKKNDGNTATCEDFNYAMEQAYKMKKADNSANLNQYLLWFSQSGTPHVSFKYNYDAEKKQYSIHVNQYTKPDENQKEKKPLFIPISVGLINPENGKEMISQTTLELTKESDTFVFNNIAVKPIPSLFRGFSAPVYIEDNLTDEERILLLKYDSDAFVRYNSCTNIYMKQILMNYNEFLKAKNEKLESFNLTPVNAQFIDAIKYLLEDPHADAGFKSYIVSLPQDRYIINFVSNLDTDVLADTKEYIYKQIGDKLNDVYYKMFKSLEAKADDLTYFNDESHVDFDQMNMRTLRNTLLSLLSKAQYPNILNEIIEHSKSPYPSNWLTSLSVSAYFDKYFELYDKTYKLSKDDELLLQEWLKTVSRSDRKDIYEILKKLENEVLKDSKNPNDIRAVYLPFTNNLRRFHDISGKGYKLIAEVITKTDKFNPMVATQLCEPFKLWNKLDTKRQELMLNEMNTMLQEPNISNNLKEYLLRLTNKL

Genome polyprotein = Genome polyprotein (dengue virus type 2, UniProt P29990); test: flavivirus cap methylation enzyme inhibition – biochemical, confirmation dose response, primary screen (AID 588689); type: functional
Genome polyprotein, sequence (P29990 2492-3391 limits assumed): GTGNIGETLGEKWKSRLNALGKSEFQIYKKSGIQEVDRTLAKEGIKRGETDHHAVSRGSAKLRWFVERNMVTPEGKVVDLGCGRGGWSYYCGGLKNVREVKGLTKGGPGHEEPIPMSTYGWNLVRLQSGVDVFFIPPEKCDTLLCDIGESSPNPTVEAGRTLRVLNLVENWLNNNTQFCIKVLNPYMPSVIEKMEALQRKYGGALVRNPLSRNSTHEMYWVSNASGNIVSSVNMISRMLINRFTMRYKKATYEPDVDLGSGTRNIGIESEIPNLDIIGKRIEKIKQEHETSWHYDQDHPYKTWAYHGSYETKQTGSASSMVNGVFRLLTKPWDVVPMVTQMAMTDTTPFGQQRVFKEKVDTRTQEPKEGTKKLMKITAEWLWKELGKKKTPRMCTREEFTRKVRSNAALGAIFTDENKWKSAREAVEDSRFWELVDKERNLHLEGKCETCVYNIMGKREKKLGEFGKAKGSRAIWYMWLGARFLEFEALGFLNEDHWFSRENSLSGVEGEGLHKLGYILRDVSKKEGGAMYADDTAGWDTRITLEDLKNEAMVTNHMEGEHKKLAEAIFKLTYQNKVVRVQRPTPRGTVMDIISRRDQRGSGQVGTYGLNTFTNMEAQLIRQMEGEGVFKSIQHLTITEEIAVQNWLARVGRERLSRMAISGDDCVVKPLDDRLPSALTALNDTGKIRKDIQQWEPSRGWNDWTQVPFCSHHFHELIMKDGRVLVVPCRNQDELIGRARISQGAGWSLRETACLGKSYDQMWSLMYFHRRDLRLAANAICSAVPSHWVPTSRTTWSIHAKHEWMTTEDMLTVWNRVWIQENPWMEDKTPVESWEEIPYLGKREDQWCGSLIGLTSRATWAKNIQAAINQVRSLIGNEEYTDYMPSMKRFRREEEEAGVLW

[5] = activation of miR-122 Renilla sensor silencing – cell-based, Huh7 psiCHECK-miR122, Renilla luciferase, cherry-picked, dose response (AID 651956); type: functional;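 note: huh7 hepatoma cells stably carrying a psiCHECK-2 miR-122 sensor plasmid; renilla luciferase signal reporting endogenous miR-122 activity after 48 h compound exposure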
Paired box protein Pax-8 = Paired box protein Pax-8 (Homo sapiens, UniProt Q06710); test: PAX8 transcriptional activity inhibition in RMG-I – RMG-I cells, luciferase, cherry-pick, dose response (AID 687027); type: functional, cell-based;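 note: luciferase reporter driven by Pax8 target thyroperoxidase promoter measured by SteadyGlo luminescence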
Paired box protein Pax-8, sequence (Q06710 whole entry): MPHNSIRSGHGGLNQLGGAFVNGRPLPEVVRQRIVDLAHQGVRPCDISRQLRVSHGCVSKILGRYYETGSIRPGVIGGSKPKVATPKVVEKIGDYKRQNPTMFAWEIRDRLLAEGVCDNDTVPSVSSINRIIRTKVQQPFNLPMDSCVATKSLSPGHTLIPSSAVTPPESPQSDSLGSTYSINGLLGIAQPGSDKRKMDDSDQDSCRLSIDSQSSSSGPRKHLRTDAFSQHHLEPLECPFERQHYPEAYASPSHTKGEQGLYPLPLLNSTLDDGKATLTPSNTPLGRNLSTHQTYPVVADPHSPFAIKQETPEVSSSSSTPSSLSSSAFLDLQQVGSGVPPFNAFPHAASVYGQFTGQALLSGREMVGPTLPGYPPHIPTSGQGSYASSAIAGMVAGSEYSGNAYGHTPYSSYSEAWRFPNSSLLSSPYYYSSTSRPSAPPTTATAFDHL

[6] = growth inhibition of yeast DHODH-expressing 3D7 parasites – SYBR Green, dry powder samples, dose response (AID 1159570); type: functional, cell-based;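 note: parasite growth measured after 72 hours of compound exposure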
[7] = toxicity to human HepG2 hepatoma cells – cell-based, plate reader, dry powder samples, cytotoxicity control, dose response (AID 1159569); type: functional;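 note: inhibitor potency with signal falling toward the positive control level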
[8] = P. falciparum Dd2 growth inhibitors, dose response, SYBR Green, cherry-picked samples (AID 1159567); type: functional, cell-based
[9] = Dd2 malaria parasite growth inhibition potency – SYBR Green, dry powder samples, dose response (AID 1159566); type: functional, cell-based;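 note: potency for growth inhibition with lower SYBR green DNA signal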
[10] = growth inhibition of PfATP4-mutant resistant parasites – NITD609-resistant line, SYBR Green, dry powder, dose response (AID 1159571); type: functional, cell-based;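 note: parasites synchronized at ring stage by sorbitol before testing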

| SMILES | AC50 [6] | AC50 [7] | AC50 [8] | AC50 [9] | AC50 [10] | also measured |
| --- | --- | --- | --- | --- | --- | --- |
| O=C1Nc2cc(Cl)c(Cl)cc2N(O)N1c1cc(Cl)cc(Cl)c1 | – | – | – | – | – | IC50 (Cysteine protease ATG4B): 14.5 µM (active); IC50 (Phospholipase A2): 13.7 µM (active) |
| O=C(c1ccc(Br)o1)N1CCN=C1SCc1cccc(F)c1 | – | – | – | – | – | EC50 [1]: > 300 µM (not active); EC50 [2]: > 300 µM (not active) |
| CC(C)(C)NC(=O)c1cccc(NC(=O)c2ccc3c(c2)C(=O)N(C(C)(C)C)C3=O)c1 | – | – | – | – | – | CC50 [3]: > 50 µM (active); AC50 [4]: 37.3 µM (active); IC50 (cells): 39.8 µM (active) |
| COC(=O)N1[C@H](C)C=C[C@]1(Cc1ccccc1)C(=O)NCc1ccc(N(C)C)cc1 | – | – | – | – | – | AC50 (Cytochrome P450 3A4): 1 µM (inconclusive) |
| O=C(Nc1ccc(Cl)cc1C(=O)O)c1ccc2c(c1)C(=O)N(Cc1ccco1)C2=O | – | – | – | – | – | IC50 (Aminopeptidase N): 137 µM (active); IC50 (Genome polyprotein): 46.3 µM (active) |
| C[C@H](CO)N1C[C@H](C)[C@@H](CN(C)C(=O)C2CCOCC2)Oc2cc(C#Cc3ccncc3)ccc2S1(=O)=O | – | – | – | – | – | AC50 [5]: 3.77 µM (active) |
| CCCNC(=O)C[C@@H]1CC[C@@H]2[C@H](COc3ccc(NS(=O)(=O)c4ccccc4C)cc3C(=O)N2C)O1 | – | – | – | – | – | AC50 [5]: 56 µM (active) |
| C[C@@H]1CN([C@@H](C)CO)S(=O)(=O)c2ccc(C#CC3CC3)cc2O[C@@H]1CN(C)C(=O)c1cccc(F)c1 | – | – | – | – | – | AC50 [5]: 8.3 µM (active) |
| C[C@H]1CN([C@@H](C)CO)C(=O)c2c(c3ccccc3n2C)-c2ccccc2CO[C@@H]1CN(C)Cc1ccc(-c2ccccc2)cc1 | 2.75 µM (active) | 22.2 µM (active) | 2.75 µM (active) | 1.49 µM (active) | 1.99 µM (active) | AC50 (Paired box protein Pax-8): 24.9 µM (active) |
| N#Cc1cccc(-c2ccc3c(c2)[C@H]2[C@H](CCN2Cc2ccncc2)[C@@H](CO)N3)c1 | 1.57 µM (active) | > 100 µM (inactive) | 1.99 µM (active) | 1.4 µM (active) | 3.28 µM (active) | – |
| C[C@H](CO)N1C[C@H](C)[C@H](CN(C)CC2CC2)Oc2ccc(NC(=O)Nc3cccc4ccccc34)cc2CC1=O | 2.51 µM (active) | 48.5 µM (active) | 2.51 µM (active) | 1.25 µM (active) | 2.47 µM (active) | – |
| Fc1cccc(-c2ccc([C@@H]3[C@@H]4CN(Cc5cncnc5)C[C@H]3N4)cc2)c1 | 4.51 µM (active) | 18.8 µM (active) | 1.36 µM (active) | 1.6 µM (active) | 2.67 µM (active) | – |
